Measurements published in patent publication US9694016B2 (Novartis AG, priority 2013, dated 2017).

These compounds were tested against b-Raf (V600E) (Homo sapiens (Human), UniProt P15056, V600E). Settings: read-out: b-Raf IC-50; AlphaScreen, 60 min pre-incubation, reaction 3 hours at room temperature.
Chain of b-Raf (V600E) (P15056 whole entry V600E): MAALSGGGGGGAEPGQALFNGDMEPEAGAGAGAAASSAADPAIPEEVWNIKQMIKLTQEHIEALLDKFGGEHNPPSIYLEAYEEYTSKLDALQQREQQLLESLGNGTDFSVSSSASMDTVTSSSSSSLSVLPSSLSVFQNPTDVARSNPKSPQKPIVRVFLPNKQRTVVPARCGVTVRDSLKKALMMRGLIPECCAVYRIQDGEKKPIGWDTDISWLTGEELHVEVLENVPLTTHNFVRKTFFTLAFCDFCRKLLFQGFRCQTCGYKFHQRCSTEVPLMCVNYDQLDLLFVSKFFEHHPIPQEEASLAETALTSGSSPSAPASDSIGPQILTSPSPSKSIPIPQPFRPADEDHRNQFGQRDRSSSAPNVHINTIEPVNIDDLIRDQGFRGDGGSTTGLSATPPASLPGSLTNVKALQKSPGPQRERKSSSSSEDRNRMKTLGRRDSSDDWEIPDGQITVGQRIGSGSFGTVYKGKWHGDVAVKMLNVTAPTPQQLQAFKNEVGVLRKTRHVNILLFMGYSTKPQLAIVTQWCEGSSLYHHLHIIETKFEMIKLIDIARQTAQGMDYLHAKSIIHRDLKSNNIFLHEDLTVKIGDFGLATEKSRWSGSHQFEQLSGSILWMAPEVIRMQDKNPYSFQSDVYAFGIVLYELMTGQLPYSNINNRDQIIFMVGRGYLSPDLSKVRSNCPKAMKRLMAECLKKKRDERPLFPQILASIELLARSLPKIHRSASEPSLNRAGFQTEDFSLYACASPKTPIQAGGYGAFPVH

| SMILES | IC50 [nM] |
| --- | --- |
| Cc1ncc(NC(=O)c2cccc(C(F)(F)F)c2)cc1-c1cnc(CC2(O)CCOCC2)c(N2CCOCC2)c1 [Example 993, N-(6′-((4-hydroxytetrahydro-2H-pyran-4-yl)methyl)-2-methyl-5′-morpholino-[3,3′-bipyridin]-5-yl)-3-(trifluoromethyl)benzamide] | 9.66 |
| Cc1ccc(NC(=O)c2ccnc(C(C)(C)F)c2)cc1-c1cnc(OCCO)c(N2CCOCC2)c1 [Example 997, 2-(2-fluoropropan-2-yl)-N-(3-(6-(2-hydroxyethoxy)-5-morpholinopyridin-3-yl)-4-methylphenyl)isonicotinamide] | 2 |
| Cc1ccc(NC(=O)c2ccnc(C(C)(C)C#N)c2)cc1-c1cnc(OCCO)c(N2CCOCC2)c1 [Example 998, 2-(2-cyanopropan-2-yl)-N-(3-(6-(2-hydroxyethoxy)-5-morpholinopyridin-3-yl)-4-methylphenyl)isonicotinamide] | 3 |
| Cc1ccc(NC(=O)c2ccnc(C3CC3)c2)cc1-c1cnc(OCCO)c(N2CCOCC2)c1 [Example 999, 2-cyclopropyl-N-(3-(6-(2-hydroxyethoxy)-5-morpholinopyridin-3-yl)-4-methylphenyl)isonicotinamide] | 0.91 |
| Cc1ccc(NC(=O)c2ccnc(C(C)(F)F)c2)cc1-c1cnc(OCCO)c(N2CCOCC2)c1 [Example 1000, 2-(1,1-difluoroethyl)-N-(3-(6-(2-hydroxyethoxy)-5-morpholinopyridin-3-yl)-4-methylphenyl)isonicotinamide] | 2.15 |
| Cc1ccc(NC(=O)c2cncc(C(F)(F)F)c2)cc1-c1cnc(OCCO)c(N2CCOCC2)c1 [Example 1001, N-(3-(6-(2-hydroxyethoxy)-5-morpholinopyridin-3-yl)-4-methylphenyl)-5-(trifluoromethyl)nicotinamide] | 1.36 |
| Cc1ccc(NC(=O)c2ccnc(C(F)(F)F)c2)cc1-c1cnc(OCCO)c(N2CCOCC2)c1 [Example 1002, N-(3-(6-(2-hydroxyethoxy)-5-morpholinopyridin-3-yl)-4-methylphenyl)-2-(trifluoromethyl)isonicotinamide] | 1.75 |
| COC(=O)NC[C@@H](C)Oc1ncc(-c2cc(NC(=O)c3cccc(C(F)(F)F)c3)cnc2C)cc1N1CCOCC1 [Example 1003, (R)-methyl(2-((2′-methyl-5-morpholino-5′-(3-(trifluoromethyl)benzamido)-[3,3′-bipyridin]-6-yl)oxy)propyl)carbamate] | 4.12 |
| Cc1ncc(NC(=O)c2cnnc(C(F)(F)F)c2)cc1-c1cc(NCCO)nc(N2CCOCC2)c1F [Example 1004, N-(3′-fluoro-6′-((2-hydroxyethyl)amino)-2-methyl-2′-morpholino-[3,4′-bipyridin]-5-yl)-6-(trifluoromethyl)pyridazine-4-carboxamide] | 83.6 |
| Cc1ccc(NC(=O)c2ccnc(C(F)(F)F)c2)cc1-c1cc(N2CCOCC2)nc(NCCO)c1F [Example 1006, N-(3-(3-fluoro-2-((2-hydroxyethyl)amino)-6-morpholinopyridin-4-yl)-4-methylphenyl)-2-(trifluoromethyl)isonicotinamide] | 3.97 |
| Cc1ccc(NC(=O)c2cnnc(C(F)(F)F)c2)cc1-c1cc(N2CCOCC2)nc(NCCO)c1F [Example 1007, N-(3-(3-fluoro-2-((2-hydroxyethyl)amino)-6-morpholinopyridin-4-yl)-4-methylphenyl)-6-(trifluoromethyl)pyridazine-4-carboxamide] | 5.38 |
| Cc1ccc(NC(=O)c2ccnc(C(F)(F)F)c2)cc1-c1cc(NCCO)nc(N2CCOCC2)c1F [Example 1008, N-(3-(3-fluoro-6-((2-hydroxyethyl)amino)-2-morpholinopyridin-4-yl)-4-methylphenyl)-2-(trifluoromethyl)isonicotinamide] | 13.3 |
| Cc1ccc(NC(=O)c2ccnc(C(F)F)c2)cc1-c1cc(NCCO)nc(N2CCOCC2)c1F [Example 1009, 2-(difluoromethyl)-N-(3-(3-fluoro-6-((2-hydroxyethyl)amino)-2-morpholinopyridin-4-yl)-4-methylphenyl)isonicotinamide] | 14.8 |
| Cc1ccc(NC(=O)c2ccnc(C(C)(C)O)c2)cc1-c1cc(NCCO)nc(N2CCOCC2)c1F [Example 1010, N-(3-(3-fluoro-6-((2-hydroxyethyl)amino)-2-morpholinopyridin-4-yl)-4-methylphenyl)-2-(2-hydroxypropan-2-yl)isonicotinamide] | 28.9 |
| Cc1ccc(NC(=O)c2ccnc(C3(C#N)CC3)c2)cc1-c1cc(NCCO)nc(N2CCOCC2)c1F [Example 1011, 2-(1-cyanocyclopropyl)-N-(3-(3-fluoro-6-((2-hydroxyethyl)amino)-2-morpholinopyridin-4-yl)-4-methylphenyl)isonicotinamide] | 24.5 |
| Cc1ccc(NC(=O)c2cnnc(C(C)(C)C#N)c2)cc1-c1cc(NCCO)nc(N2CCOCC2)c1F [Example 1012, 6-(2-cyanopropan-2-yl)-N-(3-(3-fluoro-6-((2-hydroxyethyl)amino)-2-morpholinopyridin-4-yl)-4-methylphenyl)pyridazine-4-carboxamide] | 70.6 |
| Cc1ccc(NC(=O)c2cnnc(C(F)(F)F)c2)cc1-c1cc(NCCO)nc(N2CCOCC2)c1F [Example 1013, N-(3-(3-fluoro-6-((2-hydroxyethyl)amino)-2-morpholinopyridin-4-yl)-4-methylphenyl)-6-(trifluoromethyl)pyridazine-4-carboxamide] | 9.79 |

| SMILES | IC50 [nM] |
| --- | --- |
| Cc1ccc(NC(=O)c2ccnc(C(F)(F)F)c2)cc1-c1c(F)c(NCCO)nc(N2CCOCC2)c1F [Example 1014, N-(3-(3,5-difluoro-2-((2-hydroxyethyl)amino)-6-morpholinopyridin-4-yl)-4-methylphenyl)-2-(trifluoromethyl)isonicotinamide] | 12.8 |
| Cc1ccc(NC(=O)c2cnnc(C(F)(F)F)c2)cc1-c1c(F)c(NCCO)nc(N2CCOCC2)c1F [Example 1015, N-(3-(3,5-difluoro-2-((2-hydroxyethyl)amino)-6-morpholinopyridin-4-yl)-4-methylphenyl)-6-(trifluoromethyl)pyridazine-4-carboxamide] | 29.5 |
| Cc1ccc(NC(=O)c2ccnc(C(F)F)c2)cc1-c1cc(N2CCOCC2)nc(NCCO)c1F [Example 1016, 2-(difluoromethyl)-N-(3-(3-fluoro-2-((2-hydroxyethyl)amino)-6-morpholinopyridin-4-yl)-4-methylphenyl)isonicotinamide] | 2.27 |
| COc1nnc(-c2cc(C(=O)Nc3ccnc(C(F)(F)F)c3)ccc2C)cc1N1CCOCC1 [Example 1017, 3-(6-methoxy-5-morpholinopyridazin-3-yl)-4-methyl-N-(2-(trifluoromethyl)pyridin-4-yl)benzamide] | 0.98 |
| COc1nnc(-c2cc(C(=O)Nc3ccnc(C(F)(F)F)c3)ccc2C)cc1N1CCOCC1 [Example 1018] | 1.76 |
| COc1nnc(-c2cc(C(=O)Nc3ccnc(C(C)(F)F)c3)ccc2C)cc1N1CCOCC1 [Example 1019, N-(2-(1,1-difluoroethyl)pyridin-4-yl)-3-(6-methoxy-5-morpholinopyridazin-3-yl)-4-methylbenzamide] | 1.11 |
| CCOc1nnc(-c2cc(C(=O)Nc3ccnc(C(C)(F)F)c3)ccc2C)cc1N1CCOCC1 [Example 1020, N-(2-(1,1-difluoroethyl)pyridin-4-yl)-3-(6-ethoxy-5-morpholinopyridazin-3-yl)-4-methylbenzamide] | 7.72 |
| Cc1ccc(NC(=O)c2ccnc(C(F)(F)F)c2)cc1-c1cc(NC[C@@H](C)O)nc(N2CCOCC2)n1 [Example 1023, (R)—N-(3-(6-((2-hydroxypropyl)amino)-2-morpholinopyrimidin-4-yl)-4-methylphenyl)-2-(trifluoromethyl)isonicotinamide] | 2.32 |
| Cc1ccc(NC(=O)c2ccnc(C(C)(C)F)c2)cc1-c1cc(NC[C@@H](C)O)nc(N2CCOCC2)n1 [Example 1025, (R)-2-(2-fluoropropan-2-yl)-N-(3-(6-((2-hydroxypropyl)amino)-2-morpholinopyrimidin-4-yl)-4-methylphenyl)isonicotinamide] | 12.7 |
| Cc1ccc(NC(=O)c2ccnc(C(C)(C)C#N)c2)cc1-c1cc(NC[C@@H](C)O)nc(N2CCOCC2)n1 [Example 1026, (R)-2-(2-cyanopropan-2-yl)-N-(3-(6-((2-hydroxypropyl)amino)-2-morpholinopyrimidin-4-yl)-4-methylphenyl)isonicotinamide] | 12.9 |
| CCOc1ccc(-c2cc(NC(=O)c3ccnc(C(C)(C)F)c3)cnc2C)nc1N1CCOCC1 [Example 1027, N-(5-ethoxy-2′-methyl-6-morpholino-[2,3′-bipyridin]-5′-yl)-2-(2-fluoropropan-2-yl)isonicotinamide] | 8.48 |
| CCOc1ccc(-c2cc(NC(=O)c3ccnc(C(C)(F)F)c3)cnc2C)nc1N1CCOCC1 [Example 1028, 2-(1,1-difluoroethyl)-N-(5-ethoxy-2′-methyl-6-morpholino-[2,3′-bipyridin]-5′-yl)isonicotinamide] | 4.11 |
| Cc1ncc(NC(=O)c2cccc(C(F)(F)F)c2)cc1-c1cnc(OC2CCS(=O)(=O)CC2)c(N2CCOCC2)c1 [Example 1034, N-(6′-((1,1-dioxidotetrahydro-2H-thiopyran-4-yl)oxy)-2-methyl-5′-morpholino-[3,3′-bipyridin]-5-yl)-3-(trifluoromethyl)benzamide] | 1.59 |
| Cc1ccc(NC(=O)c2cccc(C(F)F)c2)cc1-c1cc(NCCO)nc(N2CCOCC2)c1 [Example 1036, 3-(difluoromethyl)-N-(3-(2-((2-hydroxyethyl)amino)-6-morpholinopyridin-4-yl)-4-methylphenyl)benzamide] | 0.54 |
| Cc1ccc(NC(=O)c2ccnc(C(C)(F)F)c2)cc1-c1cc(NCCO)nc(N2CCOCC2)c1 [Example 1037, 2-(1,1-difluoroethyl)-N-(3-(2-((2-hydroxyethyl)amino)-6-morpholinopyridin-4-yl)-4-methylphenyl)isonicotinamide] | 1.07 |
| Cc1ncc(NC(=O)c2cccc(C(F)F)c2)cc1-c1cc(NCCO)nc(N2CCOCC2)c1 [Example 1038, 3-(difluoromethyl)-N-(2′-((2-hydroxyethyl)amino)-2-methyl-6′-morpholino-[3,4′-bipyridin]-5-yl)benzamide] | 2.86 |
